The target in the test is T1, horseradish peroxidase (HRP) tagged delF508-CFTR (Homo sapiens, UniProt P13569, DEL508-508).
T1 construct: expressed in transfected cells
The test is described as follows: Measurement of delF508-CFTR-HRP surface expression in CFBE41o- cells.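 On DelF508-CFTR-HRP Amax %: percent efficacy relative to reference corrector lumacaftor.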 In kind it is cell-based. The following applies: for Emax: read-out: DelF508-CFTR-HRP Amax %. In a few lines: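 CFBE41o- bronchial epithelial cells stably expressing delF508-CFTR with HRP in the fourth extracellular loop; expression induced 48h with 500 ng/mL doxycycline, then compounds added (top 10 μM, 10-point 3-fold series, ≤0.5% DMSO) for 24h at 37° C. Surface HRP measured by luminescence with cell-impermeant substrate; EC50 from logistic fit of triplicates, plate-normalized to lowest concentration; efficacy also relative to a reference corrector.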

Setting [1] is: delF508-CFTR-HRP surface expression, CFBE41o- cells.
Setting [2] is: delF508-CFTR-HRP surface expression, CFBE41o- cells, read-out: DelF508-CFTR-HRP EC50.
Setting [3] is: CFBE41o- cells, mean of at least two replicates, read-out: DelF508-CFTR-HRP EC50.
The mark [4] stands for this setting: CFBE41o- cells, surface expression Amax.

This is an account of results in patent publication US11066369B2, “N-(pyridin-2-yl)pyridine-sulfonamide derivatives and their use in the treatment of disease” (Novartis AG, priority 2016, dated 2021).

Where a name gives a salt, the structure may show the parent alone. Read-outs that look alike come from different tables or passages of the source.

T1 sequence (P13569 with tags, fused parts or gaps DEL508-508): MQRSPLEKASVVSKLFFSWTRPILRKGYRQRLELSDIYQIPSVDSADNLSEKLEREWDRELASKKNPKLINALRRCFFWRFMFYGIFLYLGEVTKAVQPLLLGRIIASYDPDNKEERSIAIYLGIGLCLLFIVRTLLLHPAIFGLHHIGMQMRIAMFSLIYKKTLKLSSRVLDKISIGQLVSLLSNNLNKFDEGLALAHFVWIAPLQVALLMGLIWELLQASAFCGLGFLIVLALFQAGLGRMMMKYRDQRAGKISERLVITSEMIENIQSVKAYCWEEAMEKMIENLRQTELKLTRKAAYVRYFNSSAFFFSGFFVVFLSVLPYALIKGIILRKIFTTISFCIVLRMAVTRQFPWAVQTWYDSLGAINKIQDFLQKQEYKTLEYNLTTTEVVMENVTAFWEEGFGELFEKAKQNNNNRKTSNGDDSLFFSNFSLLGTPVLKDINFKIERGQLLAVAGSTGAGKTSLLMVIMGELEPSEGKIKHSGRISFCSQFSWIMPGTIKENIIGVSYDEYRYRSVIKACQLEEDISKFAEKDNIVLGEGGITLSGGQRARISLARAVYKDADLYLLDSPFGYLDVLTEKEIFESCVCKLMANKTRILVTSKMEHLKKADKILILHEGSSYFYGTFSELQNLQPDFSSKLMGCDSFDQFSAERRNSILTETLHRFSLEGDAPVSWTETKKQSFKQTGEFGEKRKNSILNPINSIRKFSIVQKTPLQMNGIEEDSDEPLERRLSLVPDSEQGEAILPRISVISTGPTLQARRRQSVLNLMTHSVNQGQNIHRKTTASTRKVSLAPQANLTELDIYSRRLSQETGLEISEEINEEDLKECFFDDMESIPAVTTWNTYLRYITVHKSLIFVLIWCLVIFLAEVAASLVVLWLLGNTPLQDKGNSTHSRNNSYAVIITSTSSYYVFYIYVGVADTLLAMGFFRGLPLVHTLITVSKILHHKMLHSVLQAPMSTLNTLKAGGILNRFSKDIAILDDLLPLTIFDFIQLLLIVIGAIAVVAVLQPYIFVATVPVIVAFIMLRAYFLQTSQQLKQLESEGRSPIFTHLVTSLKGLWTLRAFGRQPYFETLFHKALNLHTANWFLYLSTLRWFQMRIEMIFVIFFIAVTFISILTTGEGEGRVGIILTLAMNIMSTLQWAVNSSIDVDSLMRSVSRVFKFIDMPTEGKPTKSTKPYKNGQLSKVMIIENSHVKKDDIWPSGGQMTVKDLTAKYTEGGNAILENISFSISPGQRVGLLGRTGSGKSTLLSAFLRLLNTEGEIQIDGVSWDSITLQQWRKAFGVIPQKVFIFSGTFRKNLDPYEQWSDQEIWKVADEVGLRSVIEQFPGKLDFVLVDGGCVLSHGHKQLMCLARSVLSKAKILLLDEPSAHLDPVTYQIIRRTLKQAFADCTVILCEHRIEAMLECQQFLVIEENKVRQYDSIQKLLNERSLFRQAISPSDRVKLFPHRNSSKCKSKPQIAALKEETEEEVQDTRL

As to `Cc1ccccc1-c1nc(NS(=O)(=O)c2cccc(N3CCN(C(=O)OC(C)(C)C)C[C@@H]3C(=O)O)n2)ccc1C(F)(F)F` [Example 347, (2R)-4-[(tert-butoxy)carbonyl]-1-(6-{[6-(2-methylphenyl)-5-(trifluoromethyl)pyridin-2-yl]sulfamoyl}pyridin-2-yl)piperazine-2-carboxylic Acid], under setting [1], the Emax came to 245%. Besides, the EC50 under setting [2] was 1890 nM.

With `CC(F)(F)c1ccccc1-c1nc(NS(=O)(=O)c2cccc(N)n2)ccc1Cl` [Example 48, 6-amino-N-(5-chloro-6-(2-(1,1-difluoroethyl)phenyl)pyridin-2-yl)pyridine-2-sulfonamide], the Emax under setting [1] stood at 334%. Also, the EC50 under setting [2] came out at 2330 nM.

As to `Cc1cc(F)ccc1-c1nc(NS(=O)(=O)c2cccc(N)n2)ccc1Cl` [Example 37, 6-amino-N-(5-chloro-6-(4-fluoro-2-methylphenyl)pyridin-2-yl)pyridine-2-sulfonamide], under setting [1], the Emax worked out at 386%. The EC50 under setting [2] stood at 2290 nM.

As for `CC(C)c1ccccc1-c1nc(NS(=O)(=O)c2cccc(N3CCC[C@@H]4[C@@H](C(=O)O)C[C@@H]43)n2)ccc1C(F)(F)F` (racemic) [Example 442, rac-(1SR,6RS,7SR)-2-(6-(N-(6-(2-isopropylphenyl)-5-(trifluoromethyl)pyridin-2-yl)sulfamoyl)pyridin-2-yl)-2-azabicyclo[4.2.0]octane-7-carboxylic Acid], the EC50 under setting [3] is 1240 nM.

Turning to `COc1ccccc1-c1nc(NS(=O)(=O)c2cccc(N)n2)ccc1Cl` [Example 76, 6-amino-N-(5-chloro-6-(2-methoxyphenyl)pyridin-2-yl)pyridine-2-sulfonamide], under setting [1], the Emax is 156%. The EC50 under setting [2] stood at 2300 nM.

In the case of `O=S(=O)(Nc1ccc(C(F)(F)F)c(-c2ccc(F)cc2Cl)n1)c1cccc(N2CCNCC2)n1` [Example 153, N-(6-(2-Chloro-4-Fluorophenyl)-5-(Trifluoromethyl)Pyridin-2-yl)-6-(Piperazin-1-yl)Pyridine-2-Sulfonamide Hydrochloride], under setting [1], the Emax came to 159%. Moreover, the EC50 under setting [2] was 3800 nM.

With `CCC[C@@H]1CCN(c2cccc(S(=O)(=O)Nc3ccc(C(F)(F)F)c(-c4ccccc4C)n3)n2)[C@H]2C[C@H](C(=O)O)[C@@H]12` (racemic) [Example 404, rac-(1SR,5RS,6RS,7SR)-5-propyl-2-(6-(N-(6-(o-tolyl)-5-(trifluoromethyl)pyridin-2-yl)sulfamoyl)pyridin-2-yl)-2-azabicyclo[4.2.0]octane-7-carboxylic Acid], the EC50 under setting [3] was found to be 786 nM.

`Cc1ccccc1-c1nc(NS(=O)(=O)c2cccc(N3CCN[C@H](C(=O)O)C3)n2)ccc1C(F)(F)F` [Example 335, (2S)-4-(6-{[6-(2-methylphenyl)-5-(trifluoromethyl)pyridin-2-yl]sulfamoyl}pyridin-2-yl)piperazine-2-carboxylic Acid]: under setting [1], the Emax is 71.3%. Under setting [2], the EC50 worked out at 3140 nM.

For `CC1(C(=O)O)CCCN(c2cccc(S(=O)(=O)Nc3ccc(C(F)(F)F)c(-c4ccccc4CCO)n3)n2)C1` (stereo not drawn) [Example 445, 1-(6-(N-(6-(2-(2-hydroxyethyl)phenyl)-5-(trifluoromethyl)pyridin-2-yl)sulfamoyl)pyridin-2-yl)-3-methylpiperidine-3-carboxylic Acid], the EC50 under setting [3] is 2660 nM. The Emax under setting [4] turned out to be 94.1%.

Take `Cc1ccccc1-c1nc(NS(=O)(=O)c2cccc(NC3CCC(C(=O)O)CC3)n2)ccc1C(F)(F)F` (stereo not drawn) [Example 372, 4-((6-(N-(6-(o-tolyl)-5-(trifluoromethyl)pyridin-2-yl)sulfamoyl)pyridin-2-yl)amino)cyclohexanecarboxylic Acid]: the Emax under setting [1] was determined as 554%. Besides, the EC50 under setting [2] came out at 2250 nM.

Regarding `Cc1ccccc1-c1nc(NS(=O)(=O)c2cccc(N3C4CCC3CC(C(=O)O)C4)n2)ccc1C(F)(F)F` (stereo not drawn) [Example 346, 8-(6-{[6-(2-methylphenyl)-5-(trifluoromethyl)pyridin-2-yl]sulfamoyl}pyridin-2-yl)-8-azabicyclo[3.2.1]octane-3-carboxylic Acid], the EC50 turned out to be 1750 nM. In addition, under setting [1], the Emax was 297%.

With `CCOc1ccccc1-c1nc(NS(=O)(=O)c2cccc(N3CCC[C@@](C)(C(=O)O)C3)n2)ccc1C(F)(F)F` [Example 328, (R)-1-(6-(N-(6-(2-ethoxyphenyl)-5-(trifluoromethyl)pyridin-2-yl)sulfamoyl)pyridin-2-yl)-3-methylpiperidine-3-carboxylic Acid], the EC50 under setting [2] was determined as 1790 nM.

For the compound `Cc1ccccc1-c1nc(NS(=O)(=O)c2cccc(NC3CCC(C(=O)O)C3)n2)ccc1C(F)(F)F` (mixture of isomers) [Example 459, 3-((6-(N-(6-(o-tolyl)-5-(trifluoromethyl)pyridin-2-yl)sulfamoyl)pyridin-2-yl)amino)cyclopentanecarboxylic Acid], the EC50 under setting [3] came to 2360 nM. Moreover, the Emax under setting [4] turned out to be 332%.

For `Cc1ccccc1-c1nc(NS(=O)(=O)c2cccc(N3CCC(C)(C(=O)O)C3)n2)ccc1C(F)(F)F` (stereo not drawn) [Example 336, 3-methyl-1-(6-{[6-(2-methylphenyl)-5-(trifluoromethyl)pyridin-2-yl]sulfamoyl}pyridin-2-yl)pyrrolidine-3-carboxylic Acid], the Emax under setting [1] came to 266%. Also, under setting [2], the EC50 came to 1760 nM.

`Cc1ccccc1-c1nc(NS(=O)(=O)c2cccc(N3CC[C@H](C(=O)O)C3)n2)ccc1C(F)(F)F` [Example 348, (3S)-1-(6-{[6-(2-methylphenyl)-5-(trifluoromethyl)pyridin-2-yl]sulfamoyl}pyridin-2-yl)pyrrolidine-3-carboxylic Acid]: the Emax under setting [1] worked out at 145%. The EC50 under setting [2] was 2830 nM.

As to `CCc1ccccc1-c1nc(NS(=O)(=O)c2cccc(N3CCCC(C)(C(=O)O)C3)n2)ccc1Cl` (stereo not drawn) [Example 387, 1-(6-(N-(5-chloro-6-(2-ethylphenyl)pyridin-2-yl)sulfamoyl)pyridin-2-yl)-3-methylpiperidine-3-carboxylic Acid], the EC50 under setting [3] is 1630 nM. The Emax under setting [4] is 588%.

Take `COc1ccc(Cl)c(-c2nc(NS(=O)(=O)c3cccc(N4CCC[C@@H](C(=O)O)C4)n3)ccc2C(F)(F)F)c1` [Example 449, (R)-1-(6-(N-(6-(2-chloro-5-methoxyphenyl)-5-(trifluoromethyl)pyridin-2-yl)sulfamoyl)pyridin-2-yl)piperidine-3-carboxylic Acid]: the EC50 under setting [3] was found to be 2370 nM.

Regarding `Cc1ccccc1-c1nc(NS(=O)(=O)c2cccc(N3C[C@H]4C[C@H]4[C@H]3C(=O)O)n2)ccc1C(F)(F)F` [Example 340, (1R,2S,5S)-3-(6-{[6-(2-methylphenyl)-5-(trifluoromethyl)pyridin-2-yl]sulfamoyl}pyridin-2-yl)-3-azabicyclo[3.1.0]hexane-2-carboxylic Acid], under setting [1], the Emax is 278%. In addition, the EC50 under setting [2] is 2450 nM.

For the compound `Cc1ccccc1-c1nc(NS(=O)(=O)c2cccc(N3CCNC[C@@H]3C(=O)O)n2)ccc1C(F)(F)F` [Example 353, (2R)-1-(6-{[6-(2-methylphenyl)-5-(trifluoromethyl)pyridin-2-yl]sulfamoyl}pyridin-2-yl)piperazine-2-carboxylic Acid], under setting [1], the Emax was found to be 118%. The EC50 under setting [2] worked out at 2800 nM.

`Cc1ccccc1-c1nc(NS(=O)(=O)c2cccc(N)n2)ccc1C(F)(F)F` [Example 15, 6-amino-N-(6-(o-tolyl)-5-(trifluoromethyl)pyridin-2-yl)pyridine-2-sulfonamide]: the Emax under setting [1] was determined as 520%. For the same compound, under setting [2], the EC50 stood at 2300 nM.

As to `CC1(C(=O)O)CCCN(c2cccc(S(=O)(=O)Nc3ccc(C(F)(F)F)c(-c4ccccc4CO)n3)n2)C1` (stereo not drawn) [Example 444, 1-(6-(N-(6-(2-(hydroxymethyl)phenyl)-5-(trifluoromethyl)pyridin-2-yl)sulfamoyl)pyridin-2-yl)-3-methylpiperidine-3-carboxylic Acid], under setting [3], the EC50 was determined as 4060 nM. Besides, the Emax under setting [4] worked out at 47.5%.

Turning to `Cc1cccc(C)c1-c1nc(NS(=O)(=O)c2cccc(N3CCC(O)(C(=O)O)CC3)n2)ccc1Cl` [Example 261, 1-(6-{[5-chloro-6-(2,6-dimethylphenyl)pyridin-2-yl]sulfamoyl}pyridin-2-yl)-4-hydroxypiperidine-4-carboxylic Acid], the Emax under setting [1] was found to be 22.8%. In addition, the 50% effective concentration (EC50) under setting [2] was 4140 nM.

For the compound `Cc1ccc(F)cc1-c1nc(NS(=O)(=O)c2cccc(N3CCN(C(=O)OC(C)(C)C)CC3)n2)ccc1Cl` [Example 298, tert-butyl 4-(6-(N-(5-chloro-6-(5-fluoro-2-methylphenyl)pyridin-2-yl)sulfamoyl)pyridin-2-yl)piperazine-1-carboxylate], under setting [1], the Emax stood at 677%. For the same compound, the EC50 under setting [2] is 1490 nM.

On to `Cc1ccccc1-c1nc(NS(=O)(=O)c2cccc(N[C@@H]3CCNC[C@@H]3O)n2)ccc1C(F)(F)F` (relative stereo) [Example 113, 6-(((3S,4R)-3-hydroxypiperidin-4-yl)amino)-N-(6-(o-tolyl)-5-(trifluoromethyl)pyridin-2-yl)pyridine-2-sulfonamide Hydrochloride], for which the Emax under setting [1] worked out at 72%. In addition, the EC50 under setting [2] is 4220 nM.

For `CCc1ccccc1-c1nc(NS(=O)(=O)c2cccc(N)n2)ccc1Cl` [Example 29, 6-amino-N-(5-chloro-6-(2-ethylphenyl)pyridin-2-yl)pyridine-2-sulfonamide], under setting [1], the Emax came out at 429%. The EC50 under setting [2] is 1080 nM.

Consider `CC1(C(=O)O)CCCN(c2cccc(S(=O)(=O)Nc3ccc(C(F)(F)F)c(-c4ccccc4C4CC4)n3)n2)C1` (stereo not drawn) [Example 402, 1-(6-(N-(6-(2-cyclopropylphenyl)-5-(trifluoromethyl)pyridin-2-yl)sulfamoyl)pyridin-2-yl)-3-methylpiperidine-3-carboxylic Acid], for which the EC50 under setting [3] came out at 778 nM. Under setting [4], the Emax amounted to 729%.

For orientation: EC50 means the concentration needed to bring the measured effect to its halfway point.
